Data taken from ChEMBL document CHEMBL1201862, “PubChem BioAssay data set” (2004).
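Exposure lasted 48 hours, with cells grown in 96-well plates and compounds tested at five concentrations. The concentration for 50% growth inhibition is given as GI50.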 Activity calls are given as the source filed them. No stated cut-off is given here; in the data, active = GI50 up to about 1.1 µM and inactive = higher.

Experiments:
Experiment in all cases: DTP human tumour cell line panel, 48 h
[1] = tested on: SK-MEL-28
[2] = tested on: HCT-116
[3] = tested on: RXF 393
[4] = tested on: A498
[5] = tested on: 786-0
[6] = tested on: MCF7
[7] = tested on: SNB-19
[8] = tested on: KM12
[9] = tested on: U-251
[10] = tested on: EKVX
[11] = tested on: NCI-H522
[12] = tested on: OVCAR-5
[13] = tested on: OVCAR-3
[14] = tested on: HOP-92
[15] = tested on: RPMI-8226
[16] = tested on: K562
[17] = tested on: HCT-15
[18] = tested on: BT-549
[19] = tested on: PC-3
[20] = tested on: Hs-578T

Row | SMILES | GI50 [1] | GI50 [2] | GI50 [3] | GI50 [4] | GI50 [5] | GI50 [6] | GI50 [7] | GI50 [8] | GI50 [9] | GI50 [10] | GI50 [11] | GI50 [12] | GI50 [13] | GI50 [14] | GI50 [15] | GI50 [16] | GI50 [17] | GI50 [18] | GI50 [19] | GI50 [20]
1 | CCC[S+]([O-])c1nc(COC(=O)NC)c(COC(=O)NC)n1C (stereo not given) | > 100 µM (inactive) | > 100 µM (inactive) | > 100 µM (inactive) | > 100 µM (inactive) | > 100 µM (inactive) | > 100 µM (inactive) | > 100 µM (inactive) | > 100 µM (inactive) | > 100 µM (inactive) | > 100 µM (inactive) | > 100 µM (inactive) | > 100 µM (inactive) | > 100 µM (inactive) | > 100 µM (inactive) | > 100 µM (inactive) | > 100 µM (inactive) | > 100 µM |  |  | 
2 | CC(=O)Oc1cc(C(F)(F)F)ccc1C(=O)OC1(C)OC(=O)c2ccc(C(F)(F)F)cc2O1 (stereo not given) | > 100 µM (inactive) | > 100 µM (inactive) | > 100 µM (inactive) | > 100 µM (inactive) | > 100 µM (inactive) | > 100 µM (inactive) | > 100 µM (inactive) | > 100 µM (inactive) | > 100 µM (inactive) | > 100 µM (inactive) | > 100 µM (inactive) | > 100 µM (inactive) | > 100 µM (inactive) | > 100 µM (inactive) |  | > 100 µM (inactive) | > 100 µM | > 100 µM (inactive) | > 100 µM (inactive) | 
3 | C=C(C)/C=C/C(O)[C@](C)(O)[C@H]1[C@H](O)C[C@@]2(C)[C@@H]3CCc4c(cc(OC5OC(CO)C(O)C(O)C5O)c(O)c4C)C3(C)C(=O)C[C@]12C (stereo not given in full) | > 100 µM (inactive) | > 100 µM (inactive) | > 100 µM (inactive) | > 100 µM (inactive) | > 100 µM (inactive) | > 100 µM (inactive) | > 100 µM (inactive) | > 100 µM (inactive) | > 100 µM (inactive) | > 100 µM (inactive) | > 100 µM (inactive) | > 100 µM (inactive) | > 100 µM (inactive) | > 100 µM (inactive) |  | > 100 µM (inactive) | > 100 µM | > 10 µM (inactive) | > 100 µM (inactive) | 
4 | N#Cc1nc(C2SCCCS2)oc1N | > 100 µM (inactive) | > 100 µM (inactive) |  | > 100 µM (inactive) | > 100 µM (inactive) | > 100 µM (inactive) | > 100 µM (inactive) | > 100 µM (inactive) | > 100 µM (inactive) | > 100 µM (inactive) |  | > 100 µM (inactive) |  | > 100 µM (inactive) | 95.7 µM (inactive) | > 100 µM (inactive) | > 100 µM |  | > 100 µM (inactive) | 43 µM (inactive)
5 | Oc1c(Cl)c(Cl)c(O)c(CCNc2nccs2)c1Cl | 20.5 µM (inactive) | 7.66 µM (inactive) | 7.23 µM (inactive) |  | 16.9 µM (inactive) | 2.41 µM (inactive) | 17 µM (inactive) | 6.85 µM (inactive) | 11.3 µM (inactive) | 14.3 µM (inactive) | 2.02 µM (inactive) | 23.2 µM (inactive) | 9.35 µM (inactive) | 32.4 µM (inactive) |  | 4.58 µM (inactive) | 13.7 µM |  | 17.2 µM (inactive) | 
6 | CCN(CC)S(=O)(=O)c1ccc2[nH]c(NC(=O)OC)nc2c1 | 37.3 µM (inactive) | 37.4 µM (inactive) | 81.3 µM (inactive) |  | 64.4 µM (inactive) |  | 70.5 µM (inactive) | 36.9 µM (inactive) | > 100 µM (inactive) | > 100 µM (inactive) | > 100 µM (inactive) | > 100 µM (inactive) | 80.9 µM (inactive) | 30.1 µM (inactive) | 14 µM (inactive) | 32.1 µM (inactive) | 47.2 µM | > 100 µM (inactive) |  | > 100 µM (inactive)
7 | NCC#CCNCCCN1CC1 | > 100 µM (inactive) | > 100 µM (inactive) |  | > 100 µM (inactive) | > 100 µM (inactive) | > 100 µM (inactive) | > 100 µM (inactive) | > 100 µM (inactive) | > 100 µM (inactive) | > 100 µM (inactive) | > 100 µM (inactive) | > 100 µM (inactive) | > 100 µM (inactive) | > 100 µM (inactive) | 6.11 µM (inactive) | > 100 µM (inactive) | > 100 µM |  | > 100 µM (inactive) | > 100 µM (inactive)
8 | CC1(C)OCC(C(O)C2OC(C)(C)OC2C=O)O1 (stereo not given) | > 100 µM (inactive) | > 100 µM (inactive) |  | > 100 µM (inactive) | > 100 µM (inactive) | > 100 µM (inactive) | > 100 µM (inactive) | > 100 µM (inactive) | > 100 µM (inactive) | > 100 µM (inactive) |  | > 100 µM (inactive) | > 100 µM (inactive) |  | > 100 µM (inactive) | > 100 µM (inactive) | > 100 µM |  | > 100 µM (inactive) | > 100 µM (inactive)
9 | CNC(=O)CNC(=O)CCC(=O)OC | > 100 µM (inactive) | > 100 µM (inactive) | > 100 µM (inactive) | > 100 µM (inactive) | > 100 µM (inactive) | > 100 µM (inactive) | > 100 µM (inactive) | > 100 µM (inactive) | > 100 µM (inactive) |  | 66.2 µM (inactive) | > 100 µM (inactive) | > 100 µM (inactive) |  |  | > 100 µM (inactive) |  |  | > 100 µM (inactive) | 
